Source: patent publication US9713614B2, “Combination of HMG-CoA reductase inhibitors with phosphodiesterase 4 inhibitors for the treatment of inflammatory pulmonary diseases” (TAKEDA GMBH, priority 2006, dated 2017)

Test system: LPS-induced systemic TNFα release
Assay: Inhibition of LPS-induced systemic TNFα release in rats
Format: in vivo, rat
Settings: for ED50: Rattus norvegicus, male Sprague Dawley rats, by gavage 1 h before i.v. LPS 0.1 mg/kg, plasma TNFα by ELISA 90 min after LPS, from dose-response curves
Method: Pharmacology: Synergistic Inhibition of LPS-Induced Systemic TNFα Release in Rats by a Combination of ATORVASTATIN Hemi-Calcium Sesqui-Hydrate and 2-{4-[(4aS,8aR)-4-(3,4-dimethoxyphenyl)-1-oxo-4a,5,8,8a-tetrahydro-1H-phthalazin-2-yl]-piperidin-1-yl}-acetamide (COMPOUND A) Animals:
male Sprague Dawley rats 200-280 g
ATORVASTATIN hemi-calcium sesqui-hydrate (Alexis Pharmaceuticals, San Diego, Calif., USA) and COMPOUND A (ALTANA Pharma, Konstanz, Germany).
Drugs were administered by gavage as a methocel/polyethylenglycol 400 suspension 1 h before intravenous administration of LPS (0.1 mg/kg). Euthanasia was induced 90 minutes later by injecting pentobarbital (48 mg/kg) and heparin (1,000 U/kg). Heparinized blood was obtained by heart puncture. Blood was centrifuged (21,000×g, 4° C., 15 min), and plasma samples were kept frozen at −80° C. until determination of TNFα levels by a commercially available ELISA kit (Quantakine®M, Rat TNFα immunoassay, R&D, MN, USA).
All data are given as mean±SEM. Significances were calculated on the primary TNFα concentrations in comparison with the LPS-challenged control group using ANOVA with subsequent Dunnett's Test provided by GraphPadPrism software package. Differences with p<0.05 were considered significant. Dose-response curves were calculated by non-linear regression analysis within fixed limits of 0 to 100% inhibition. 50% inhibitory dose (ED50) values were derived from dose-response curves.

| Structure (SMILES) | decrease of LPS-induced TNFα versus placebo (ATORVASTATIN hemi-calcium sesqui-hydrate alone 0.5 mg/kg by gavage, rats, no significant effect) [%] | ED50 [mg/kg] | increase of LPS-induced TNFα versus placebo (COMPOUND A alone 0.013 mg/kg by gavage, rats, no significant effect) [%] |
| --- | --- | --- | --- |
| CC(C)c1c(C(=O)Nc2ccccc2)c(-c2ccccc2)c(-c2ccc(F)cc2)n1CC[C@@H](O)C[C@H](O)CC(=O)O [ATORVASTATIN hemi-calcium sesqui-hydrate, (3S,5R)-7-[3-(anilinocarbonyl)-5-(4-fluorophenyl)-2-isopropyl-4-phenyl-1H-pyrrol-1-yl]-3,5-dihydroxyheptanoic acid] | 11 | 23 |  |
| COc1ccc(C2=NN(C3CCN(CC(N)=O)CC3)C(=O)[C@@H]3CC=CC[C@H]23)cc1OC [COMPOUND A, 2-{4-[(4aS,8aR)-4-(3,4-dimethoxyphenyl)-1-oxo-4a,5,8,8a-tetrahydro-1H-phthalazin-2-yl]-piperidin-1-yl}-acetamide] |  | 0.14 | 1 |
